Test results from patent publication US9181290B2, “Inhibition of biofilm formation by 1,2,3,4,6-penta-O-galloyl-D-glucopyranose” (CHANG GUNG UNIVERSITY, priority 2011, dated 2015).
Like-named read-outs stand apart in the source and are kept apart here.

Tests used:
[1] = tested on: S. aureus SA113 (ATCC 35556); assay: Bacterial growth (A578) and biofilm formation (crystal violet, A595) in 96-well polystyrene microtiter plates; format: cell-based, Staphylococcus aureus; conditions: for IC50: Staphylococcus aureus, read-out: IB50 (concentration that inhibited 50% biofilm formation); for Cell Growth (%): growth compared to untreated control at the concentration of IB50
Method: An overnight bacterial culture was 200-fold diluted with TSBg, and a 200 μL aliquot of the diluted culture was seeded into each well of 96-well polystyrene microtiter plates and incubated at 37° C. for a designated period of time. Cell growth was determined by measuring the absorbance at 578 nm (A578) with a microtiter plate reader (SpectraMax 340, Molecular Devices). After washing with PBS twice to remove suspended cells, the wells were stained with 0.1% (w/v) crystal violet in 10% ethanol and then treated with 30% acetic acid in dH2O, followed by detecting the absorbance at 595 nm (A595) with the microtiter plate reader to quantify the amount of biofilm formed on polystyrene surface.
An overnight culture of S. aureus SA113 was 200-fold diluted with TSBg, and a 200 μL aliquot of the diluted culture was seeded into each well of 96-well microtiter plates. Compounds purified from medicinal plants were added into each well at a designated concentration up to […]. At 6 hours after seeding, the amounts of biofilms formed in the wells were determined by crystal violet staining as described above. Cells treated with either distilled water or DMSO were used as a control. The amount of biofilm formation by the control group was set as 100%. Each experiment was repeated at least three times, with n=6 for each sample tested. The concentrations of compounds that inhibited 50% biofilm formation (IB50) were calculated based on logistic regression analysis results. Besides, the biofilm formation inhibition rate of a PGG-treated group was calculated using the following equation (1). Biofilm formation inhibition rate(%)=[(A−B)/A]×100 (1) wherein:
In the wells of 96-well microtiter plates, S. aureus SA113 cells were cultured in TSBg broth in the presence of either β-PGG or α-PGG at different amounts (0, 1 and 10 μM). After incubation at 37° C. for 6 hrs, the cell density was determined by measuring the absorbance at 578 nm (A578), and the amounts of biofilm were quantified by crystal violet staining, with the amount of biofilm formed by untreated bacterial cells being set as 100%. Each experiment was repeated three times, with n=6 for each sample tested.
To determine the effect(s) of (β-PGG upon bacterial growth and biofilm formation, β-PGG in various amounts (final concentration: 0, 1.56, 3.13, 6.25, 12.5, 25 and 50 μM) was added into the culture of S. aureus SA113 during seeding into the wells of polystyrene microtiter plates, followed by incubation at 37° C. for 6 hrs or 24 hrs. Cell growth was determined by measuring the absorbance at 578 nm, and the amount of biofilm formed on polystyrene surface was determined at 595 nm after crystal violet staining. In addition to polystyrene surface, the effect of β-PGG in inhibiting biofilm formation on polycarbonate surface was also examined according to the procedures as described in the preceding section entitled “Materials and methods.”

S. aureus = assay: Biofilm formation after treatment with other strong antioxidants (data not shown); format: cell-based, Staphylococcus aureus
[2] = ATCC35556, 6 hours, logistic regression

Row | Molecule | Cell Growth (%) [1] | IC50 [1, 2] | influence on biofilm formation (S. aureus) | other results
1 | NC(=O)CI [IDA, Iodoacetamide, reference compound] | 50% | – | – | IC50 ([1]; ATCC35556, 6 h): 120 µM
2 | CC(=O)N[C@@H](CS)C(=O)O [NAC, N-acetylcysteine, reference compound] | 88% | 6380 µM | – | –
3 | O=C1C=CC(=O)N1c1ccccc1 [NPM, N-phenyl maleimide, reference compound] | 66% | 41.9 µM | – | –
4 | O=C1O[C@H]([C@@H](O)CO)C(O)=C1O [ascorbic acid] | – | – | does not influence biofilm formation | –
5 | O=C(OC[C@H]1O[C@H](OC(=O)c2cc(O)c(O)c(O)c2)[C@H](OC(=O)c2cc(O)c(O)c(O)c2)[C@@H](OC(=O)c2cc(O)c(O)c(O)c2)[C@@H]1OC(=O)c1cc(O)c(O)c(O)c1)c1cc(O)c(O)c(O)c1 [α-PGG, 1,2,3,4,6-Penta-O-galloyl-α-D-glucopyranose] | – | – | – | viability of S. aureus SA113 cells (A578) ([1]; 1 μM and 10 μM, 6 hour incubation (anomer comparison)): did not affect the viability; reduction of biofilm formation ([1]; 1 μM, 6 hour incubation (anomer comparison)): 13%; reduction of biofilm formation ([1]; 10 μM, 6 hour incubation (anomer comparison)): 65%
6 | (−)-epigallocatechin gallate | – | – | does not influence biofilm formation | –
